# According to PubChem BioAssay AID248 (DTP/NCI, 2004):
# Several values for one entry are separate records, joined by “and”; a condition that tells them apart may be missing. Equal values may be shown once. Inconclusive results and toxic doses are left out.
# Test system: L1210 leukemia ip in BDF1 mice, survival T/C
# Assay: NCI In Vivo Anticancer Drug Screen. Data for tumor model L1210 Leukemia (intraperitoneal) in B6D2F1 (BDF1) mice
# Details: endpoint: mean survival time, higher = longer survival
# In short: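 Read-out is survival time, reported as the treated-group measurement over the vehicle-control measurement.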
smiles,measurement,setting,value
N[C@@H](Cc1ccc(N(CCCl)CCCl)cc1)C(=O)O,T/C,"dose: 0.1 mg/kg/injection, schedule: Q01DX015 (ip), vehicle: carboxymethylcellulose (CMC)",101 % of control and 102 % of control
same,T/C,"dose: 0.13 mg/kg/injection, schedule: Q01DX009 (ip), vehicle: Klucel (hydroxypropylcellulose) (HPC)",110 % of control
same,T/C,"dose: 0.2 mg/kg/injection, schedule: Q01DX015 (ip), vehicle: carboxymethylcellulose (CMC)",104 % of control and 111 % of control
same,T/C,"dose: 0.25 mg/kg/injection, schedule: Q01DX009 (ip), vehicle: Klucel (hydroxypropylcellulose) (HPC)",105 % of control and 115 % of control
same,T/C,"dose: 0.39 mg/kg/injection, schedule: Q01DX001 (ip), vehicle: carboxymethylcellulose (CMC)",102 % of control
same,T/C,"dose: 0.4 mg/kg/injection, schedule: Q01DX015 (ip), vehicle: carboxymethylcellulose (CMC)",109 % of control and 117 % of control
same,T/C,"dose: 0.45 mg/kg/injection, schedule: Q04DX002 (ip), vehicle: Klucel (hydroxypropylcellulose) (HPC)",96 % of control
same,T/C,"dose: 0.5 mg/kg/injection, schedule: Q01DX005 (ip), vehicle: saline",111 % of control
same,T/C,"dose: 0.5 mg/kg/injection, schedule: Q01DX009 (ip), vehicle: Klucel (hydroxypropylcellulose) (HPC)",115 % of control and 116 % of control
same,T/C,"dose: 0.5 mg/kg/injection, schedule: Q01DX009 (ip), vehicle: saline",120 % of control
same,T/C,"dose: 0.5 mg/kg/injection, schedule: Q03DX Z (ip), vehicle: carboxymethylcellulose (CMC)",113 % of control
same,T/C,"dose: 0.5 mg/kg/injection, schedule: Q03HX008 (ip), vehicle: saline",114 % of control
same,T/C,"dose: 0.5 mg/kg/injection, schedule: Q03HX016 (ip), vehicle: saline",124 % of control
same,T/C,"dose: 0.78 mg/kg/injection, schedule: Q01DX001 (ip), vehicle: carboxymethylcellulose (CMC)",108 % of control
same,T/C,"dose: 0.8 mg/kg/injection, schedule: Q01DX015 (ip), vehicle: carboxymethylcellulose (CMC)",121 % of control
same,T/C,"dose: 0.9 mg/kg/injection, schedule: Q04DX002 (ip), vehicle: Klucel (hydroxypropylcellulose) (HPC)",104 % of control and 115 % of control
same,T/C,"dose: 1.0 mg/kg/injection, schedule: Q01DX005 (ip), vehicle: saline",123 % of control
same,T/C,"dose: 1.0 mg/kg/injection, schedule: Q01DX006 (iv), vehicle: carboxymethylcellulose (CMC)",107 % of control
same,T/C,"dose: 1.0 mg/kg/injection, schedule: Q01DX009 (oral), vehicle: saline",111 % of control
same,T/C,"dose: 1.0 mg/kg/injection, schedule: Q01DX Z (im), vehicle: carboxymethylcellulose (CMC)",96 % of control
same,T/C,"dose: 1.0 mg/kg/injection, schedule: Q01DX Z (ip), vehicle: carboxymethylcellulose (CMC)",94 % of control
same,T/C,"dose: 1.0 mg/kg/injection, schedule: Q01DX Z (sc), vehicle: carboxymethylcellulose (CMC)",94 % of control
same,T/C,"dose: 1.0 mg/kg/injection, schedule: Q03HX008 (ip), vehicle: saline",119 % of control
same,T/C,"dose: 1.0 mg/kg/injection, schedule: Q#A X Z (ip), vehicle: carboxymethylcellulose (CMC)",94 % of control
same,T/C,"dose: 1.13 mg/kg/injection, schedule: Q01DX001 (ip), vehicle: carboxymethylcellulose (CMC)",111 % of control and 121 % of control
same,T/C,"dose: 1.56 mg/kg/injection, schedule: Q01DX001 (ip), vehicle: saline",104 % of control and 107 % of control
same,T/C,"dose: 1.6 mg/kg/injection, schedule: Q01DX015 (ip), vehicle: carboxymethylcellulose (CMC)",154 % of control
same,T/C,"dose: 1.8 mg/kg/injection, schedule: Q04DX002 (ip), vehicle: Klucel (hydroxypropylcellulose) (HPC)",117 % of control and 118 % of control
same,T/C,"dose: 2.0 mg/kg/injection, schedule: Q01DX006 (iv), vehicle: carboxymethylcellulose (CMC)",110 % of control
same,T/C,"dose: 2.0 mg/kg/injection, schedule: Q01DX Z (im), vehicle: carboxymethylcellulose (CMC)",98 % of control
same,T/C,"dose: 2.0 mg/kg/injection, schedule: Q01DX Z (ip), vehicle: carboxymethylcellulose (CMC)",93 % of control
same,T/C,"dose: 2.0 mg/kg/injection, schedule: Q01DX Z (oral), vehicle: carboxymethylcellulose (CMC)",115 % of control
same,T/C,"dose: 2.0 mg/kg/injection, schedule: Q01DX Z (sc), vehicle: carboxymethylcellulose (CMC)",104 % of control
same,T/C,"dose: 2.0 mg/kg/injection, schedule: Q03DX Z (ip), vehicle: carboxymethylcellulose (CMC)",153 % of control
same,T/C,"dose: 2.16 mg/kg/injection, schedule: Q04DX003 (ip), vehicle: saline",151 % of control
same,T/C,"dose: 2.37 mg/kg/injection, schedule: Q01DX009 (ip), vehicle: other",150 % of control
same,T/C,"dose: 3.0 mg/kg/injection, schedule: Q03DX Z (ip), vehicle: carboxymethylcellulose (CMC)",115 % of control
same,T/C,"dose: 3.12 mg/kg/injection, schedule: Q01DX001 (ip), vehicle: saline",109 % of control and 112 % of control
same,T/C,"dose: 3.6 mg/kg/injection, schedule: Q03HX024 (ip), vehicle: other",104 % of control
same,T/C,"dose: 4.0 mg/kg/injection, schedule: Q01DX001 (ip), vehicle: saline",124 % of control
same,T/C,"dose: 4.0 mg/kg/injection, schedule: Q01DX001 (sc), vehicle: saline",121 % of control
same,T/C,"dose: 4.0 mg/kg/injection, schedule: Q01DX006 (iv), vehicle: carboxymethylcellulose (CMC)",102 % of control
same,T/C,"dose: 4.0 mg/kg/injection, schedule: Q01DX009 (oral), vehicle: saline",151 % of control
same,T/C,"dose: 4.0 mg/kg/injection, schedule: Q01DX Z (im), vehicle: carboxymethylcellulose (CMC)",104 % of control
same,T/C,"dose: 4.0 mg/kg/injection, schedule: Q01DX Z (ip), vehicle: carboxymethylcellulose (CMC)",98 % of control
same,T/C,"dose: 4.0 mg/kg/injection, schedule: Q01DX Z (oral), vehicle: carboxymethylcellulose (CMC)",104 % of control
same,T/C,"dose: 4.0 mg/kg/injection, schedule: Q01DX Z (sc), vehicle: carboxymethylcellulose (CMC)",102 % of control
same,T/C,"dose: 4.0 mg/kg/injection, schedule: Q03HX024 (ip), vehicle: saline",122 % of control
same,T/C,"dose: 4.0 mg/kg/injection, schedule: Q#A X Z (ip), vehicle: carboxymethylcellulose (CMC)",110 % of control
same,T/C,"dose: 6.0 mg/kg/injection, schedule: Q03DX Z (ip), vehicle: carboxymethylcellulose (CMC)",106 % of control
same,T/C,"dose: 6.25 mg/kg/injection, schedule: Q01DX001 (ip), vehicle: saline",120 % of control
same,T/C,"dose: 7.0 mg/kg/injection, schedule: Q01DX001 (ip), vehicle: carboxymethylcellulose (CMC)",110 % of control and 115 % of control
same,T/C,"dose: 7.0 mg/kg/injection, schedule: Q07DX Z (ip), vehicle: carboxymethylcellulose (CMC)",107 % of control
same,T/C,"dose: 7.5 mg/kg/injection, schedule: Q01DX009 (ip), vehicle: saline",100 % of control and 107 % of control
same,T/C,"dose: 8.0 mg/kg/injection, schedule: Q01DX001 (oral), vehicle: saline",123 % of control
same,T/C,"dose: 8.0 mg/kg/injection, schedule: Q01DX001 (sc), vehicle: saline",117 % of control
same,T/C,"dose: 8.0 mg/kg/injection, schedule: Q01DX005 (ip), vehicle: saline",154 % of control
same,T/C,"dose: 8.0 mg/kg/injection, schedule: Q01DX006 (iv), vehicle: carboxymethylcellulose (CMC)",104 % of control
same,T/C,"dose: 8.0 mg/kg/injection, schedule: Q01DX009 (ip), vehicle: Klucel (hydroxypropylcellulose) (HPC)",121 % of control
same,T/C,"dose: 8.0 mg/kg/injection, schedule: Q01DX009 (ip), vehicle: saline",114 % of control
same,T/C,"dose: 8.0 mg/kg/injection, schedule: Q01DX009 (oral), vehicle: saline",112 % of control
same,T/C,"dose: 8.0 mg/kg/injection, schedule: Q01DX009 (sc), vehicle: saline",95 % of control
same,T/C,"dose: 8.0 mg/kg/injection, schedule: Q01DX Z (im), vehicle: carboxymethylcellulose (CMC)",98 % of control
same,T/C,"dose: 8.0 mg/kg/injection, schedule: Q01DX Z (oral), vehicle: carboxymethylcellulose (CMC)",104 % of control
same,T/C,"dose: 8.0 mg/kg/injection, schedule: Q01DX Z (sc), vehicle: carboxymethylcellulose (CMC)",96 % of control
same,T/C,"dose: 12.0 mg/kg/injection, schedule: Q03DX Z (ip), vehicle: carboxymethylcellulose (CMC)",105 % of control
same,T/C,"dose: 12.5 mg/kg/injection, schedule: Q01DX Z (ip), vehicle: carboxymethylcellulose (CMC)",102 % of control
same,T/C,"dose: 14.0 mg/kg/injection, schedule: Q01DX001 (ip), vehicle: carboxymethylcellulose (CMC)",115 % of control and 117 % of control
same,T/C,"dose: 14.0 mg/kg/injection, schedule: Q07DX Z (ip), vehicle: carboxymethylcellulose (CMC)",98 % of control
same,T/C,"dose: 16.0 mg/kg/injection, schedule: Q01DX Z (ip), vehicle: carboxymethylcellulose (CMC)",106 % of control
same,T/C,"dose: 16.0 mg/kg/injection, schedule: Q01DX Z (oral), vehicle: carboxymethylcellulose (CMC)",102 % of control
same,T/C,"dose: 16.7 mg/kg/injection, schedule: Q01DX001 (ip), vehicle: saline",123 % of control
same,T/C,"dose: 24.0 mg/kg/injection, schedule: Q03DX Z (ip), vehicle: carboxymethylcellulose (CMC)",105 % of control
same,T/C,"dose: 25.0 mg/kg/injection, schedule: Q01DX001 (ip), vehicle: saline",154 % of control
same,T/C,"dose: 28.0 mg/kg/injection, schedule: Q01DX001 (ip), vehicle: carboxymethylcellulose (CMC)",107 % of control
same,T/C,"dose: 28.0 mg/kg/injection, schedule: Q07DX Z (ip), vehicle: carboxymethylcellulose (CMC)",94 % of control
same,T/C,"dose: 29.0 mg/kg/injection, schedule: Q04DX003 (ip), vehicle: other",95 % of control
same,T/C,"dose: 30.0 mg/kg/injection, schedule: Q01DX001 (ip), vehicle: carboxymethylcellulose (CMC)",153 % of control
same,T/C,"dose: 32.0 mg/kg/injection, schedule: Q01DX001 (ip), vehicle: saline",121 % of control
same,T/C,"dose: 32.0 mg/kg/injection, schedule: Q01DX001 (oral), vehicle: saline",93 % of control
same,T/C,"dose: 32.0 mg/kg/injection, schedule: Q01DX Z (oral), vehicle: carboxymethylcellulose (CMC)",104 % of control
same,T/C,"dose: 56.0 mg/kg/injection, schedule: Q01DX001 (ip), vehicle: carboxymethylcellulose (CMC)",107 % of control and 117 % of control
same,T/C,"dose: 56.0 mg/kg/injection, schedule: Q07DX Z (ip), vehicle: carboxymethylcellulose (CMC)",96 % of control
